In patent US5446026A, “Potent non-opiate analgesic” (Advanced Peptides & Biotechnology Sciences, priority 1993, dated 1995):
Read-outs that look alike come from different tables or passages of the source. No end group written: not given here.

Tests used:
[1] = periaqueductal gray administration; cited from earlier work
[2] = analgesia after subcutaneous injection (tail-flick and hot plate tests); type: in vivo, rodent
bone = test: uptake of calcium into bone; conditions: under the conditions tested
Source text: (§1) Studies of analgesia in monkeys is underway and following animal toxicity human trials should be undertaken. […] We would expect that this peptide, like other peptide analogs of naturally occurring modulatory substances, would be potent in quite low (milligram) doses in humans and should be able to alleviate quite severe pain even in these low doses. [drawing 1] R1, R2 =OH: Cholic Acid 89.010a R1 =H, R2 =OH: Chenodeoxycholic Acid 89.010b R1 =OH, R2 =H: Deoxycholic Acid [drawing 2] PEPTIDE-Pro-Arg-Thr-Asn-Thr-Gly-Ser-Gly-Thr-Pro-amide.

[3] = rats; cited from earlier work
[4] = cited from earlier work
[5] = three classical tests of rodent analgesia (hot plate, paw pressure, tail flick); type: in vivo; conditions: paw pressure and tail flick tests (FIG. 4)
[6] = biological target: T1, 69 Kd receptor molecule (calcitonin receptor) (Homo sapiens, UniProt P30988); test: crosslinking / SDS-PAGE in vitro receptor binding
T1 sequence (P30988 25-474): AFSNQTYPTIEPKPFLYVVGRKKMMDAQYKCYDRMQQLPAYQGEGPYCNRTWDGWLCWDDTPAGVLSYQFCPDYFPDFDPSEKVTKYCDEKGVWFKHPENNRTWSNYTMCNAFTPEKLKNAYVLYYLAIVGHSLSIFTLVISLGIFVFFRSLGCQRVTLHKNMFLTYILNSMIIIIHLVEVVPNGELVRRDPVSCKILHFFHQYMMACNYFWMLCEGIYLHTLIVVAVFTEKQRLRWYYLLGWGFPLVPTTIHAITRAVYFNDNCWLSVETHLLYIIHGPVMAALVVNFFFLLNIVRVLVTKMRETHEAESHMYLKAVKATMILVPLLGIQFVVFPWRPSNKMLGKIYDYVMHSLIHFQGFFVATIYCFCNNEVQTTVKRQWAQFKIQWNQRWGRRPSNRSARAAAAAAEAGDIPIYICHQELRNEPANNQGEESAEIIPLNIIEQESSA

[7] = observation of rodent behavior, righting reflex, inclined plane; type: in vivo
Source text: as §1

calcitonin receptor = biological target: T2, calcitonin receptor (Homo sapiens, UniProt P30988); test: in vitro receptor binding, displacement of 125-I calcitonin
T2 sequence (P30988 25-474): T1 sequence (P30988 25-474)

In the case of CC(C)C[C@H](NC(=O)[C@H](Cc1ccccc1)NC(=O)CNC(=O)CNC(=O)[C@@H](N)Cc1ccc(O)cc1)C(=O)O [enkephalin], the analgesia [1] is listed as “weak and transient”.
For CN1CC[C@]23c4c5ccc(O)c4O[C@H]2[C@@H](O)C=C[C@H]3[C@H]1C5 [morphine, reference compound], the “analgesia at two hours, the last time point tested” value [2] was “has already returned to baseline”.
For CC(C)C[C@H](NC(=O)[C@H](CCCCN)NC(=O)CNC(=O)[C@H](CC(C)C)NC(=O)[C@@H](NC(=O)[C@@H]1CSSC[C@H](N)C(=O)N[C@@H](CO)C(=O)N[C@@H](CC(N)=O)C(=O)N[C@@H](CC(C)C)C(=O)N[C@@H](CO)C(=O)N[C@@H]([C@@H](C)O)C(=O)N1)C(C)C)C(=O)N[C@@H](CO)C(=O)N[C@@H](CCC(N)=O)C(=O)N[C@@H](CCC(=O)O)C(=O)N[C@@H](CC(C)C)C(=O)N[C@@H](Cc1c[nH]cn1)C(=O)N[C@@H](CCCCN)C(=O)N[C@@H](CC(C)C)C(=O)N[C@@H](CCC(N)=O)C(=O)N[C@H](C(=O)N[C@@H](Cc1ccc(O)cc1)C(=O)N1CCC[C@H]1C(=O)N[C@@H](CCCNC(=N)N)C(=O)N[C@H](C(=O)N[C@@H](CC(N)=O)C(=O)N[C@H](C(=O)NCC(=O)N[C@@H](CO)C(=O)NCC(=O)N[C@H](C(=O)N1CCC[C@H]1C(N)=O)[C@@H](C)O)[C@@H](C)O)[C@@H](C)O)[C@@H](C)O [salmon calcitonin, reference compound], the “uptake of calcium into bone” value (bone) was “profound response”.
For Calcitonin, the analgesic activity [3] is given as “extremely potent analgesic”, the “penetration into the brain” value ([4]; human, in vivo) is given as “does not penetrate into the brain” and the side effects ([4]; human, in vivo) is given as “No important side effects”. The analgesic activity ([4]; terminal cancer patients, injection into the subarachnoid space) was “extremely potent analgesic”.
In the case of “Pro-Arg-Thr-Asn-Thr-Gly-Ser-Gly-Thr-Pro-NH2 (PRTNTGSGTP-NH2) [PD89.010b, modified calcitonin decapeptide]”, the analgesic responses [5] is reported as “significant and profound analgesic responses”, the “displacement of iodinated salmon calcitonin from the 69 Kd receptor molecule” value ([6]; at 1 μM (FIG. 3A)) is reported as “completely displaces” and the “displacement of iodinated human calcitonin from the 69 Kd receptor molecule” value ([6]; at 1 μM (FIG. 3B)) is reported as “completely displaces”. The “uptake of calcium into bone” value (bone) was “does not appear to enhance”, the “behavior and balance on an inclined plane” value ([7]; in vivo) was “remained unchanged” and the righting reflex ([7]; in vivo) was “remained unchanged”. For the same compound, the behavioral incapacitation effects ([7]; trained observers of rodent behavior) was “no obvious behavioral incapacitation effects”, the “onset of analgesia compared with morphine” value [2] was “much more rapid onset of analgesia” and the “analgesia, tail-flick test” value ([2]; one quarter the molar equivalent of morphine (FIG. 5A)) was “profound and long lived analgesia”. For the same compound, the “analgesia, hot plate test” value ([2]; one quarter the molar equivalent of morphine (FIG. 5B)) was “profound and long lived analgesia”, the “analgesia at two hours, the last time point tested” value [2] was “still is showing significant analgesia” and the “in vitro receptor binding as human calcitonin analog” value (calcitonin receptor; displacement of 125-I human calcitonin (FIG. 2A)) was “potent”. For the same compound, the “in vitro receptor binding as salmon calcitonin analog” value (calcitonin receptor; displacement of 125I salmon calcitonin (FIG. 2B)) was “weak”.
